Data from PubChem BioAssay AID256 (DTP/NCI, 2004).
Values joined by “and” are separate entries in the source; they are usually repeats but may differ in a detail not shown here. Equal values may be shown once. Inconclusive results and toxic doses are left out. Rule for the calls: active = survival T/C of 150% or more; inactive = T/C below 125% in these data.

Test system: CD2F1 mice, L1210 leukemia ip, survival T/C
Experiment: NCI In Vivo Anticancer Drug Screen. Data for tumor model L1210 Leukemia (intraperitoneal) in CD2F1 (CDF1) mice
Settings: higher = longer survival
Summary of the method: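 Implant tumor; dose compound or vehicle; measure endpoint in both groups; report treated divided by control.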

[1] = endpoint: median survival time, dose: 25.0 mg/kg/injection, schedule: Q01DX005 (ip), vehicle: saline with Tween-80
[2] = endpoint: median survival time, dose: 50.0 mg/kg/injection, schedule: Q01DX005 (ip), vehicle: saline with Tween-80
[3] = endpoint: median survival time, dose: 100.0 mg/kg/injection, schedule: Q01DX005 (ip), vehicle: saline with Tween-80
[4] = endpoint: mean survival time, dose: 100.0 mg/kg/injection, schedule: Q01DX001 (ip), vehicle: saline with Tween-80
[5] = endpoint: mean survival time, dose: 50.0 mg/kg/injection, schedule: Q01DX009 (ip), vehicle: saline with Tween-80
[6] = endpoint: mean survival time, dose: 100.0 mg/kg/injection, schedule: Q01DX009 (ip), vehicle: saline with Tween-80
[7] = endpoint: mean survival time, dose: 100.0 mg/kg/injection, schedule: Q04DX003 (ip), vehicle: saline with Tween-80
[8] = endpoint: mean survival time, dose: 200.0 mg/kg/injection, schedule: Q01DX009 (ip), vehicle: saline with Tween-80
[9] = endpoint: mean survival time, dose: 200.0 mg/kg/injection, schedule: Q04DX003 (ip), vehicle: saline with Tween-80
[10] = endpoint: mean survival time, dose: 400.0 mg/kg/injection, schedule: Q04DX003 (ip), vehicle: saline with Tween-80
[11] = endpoint: mean survival time, dose: 50.0 mg/kg/injection, schedule: Q01DX009 (ip), vehicle: Klucel (hydroxypropylcellulose) (HPC)
[12] = endpoint: mean survival time, dose: 100.0 mg/kg/injection, schedule: Q01DX009 (ip), vehicle: Klucel (hydroxypropylcellulose) (HPC)
[13] = endpoint: mean survival time, dose: 200.0 mg/kg/injection, schedule: Q01DX009 (ip), vehicle: Klucel (hydroxypropylcellulose) (HPC)

Measured: T/C

CN(CCCCN(C)CCOS(C)(=O)=O)CCOS(C)(=O)=O
active: endpoint: mean survival time, dose: 12.5 mg/kg/injection, schedule: Q01DX001 (ip), vehicle: saline 150 % of control | endpoint: mean survival time, dose: 25.0 mg/kg/injection, schedule: Q01DX001 (ip), vehicle: saline 156 % of control
inactive: endpoint: mean survival time, dose: 0.4 mg/kg/injection, schedule: Q01DX009 (ip), vehicle: saline 112 % of control | endpoint: mean survival time, dose: 0.8 mg/kg/injection, schedule: Q01DX009 (ip), vehicle: saline 115 % of control | endpoint: mean survival time, dose: 3.6 mg/kg/injection, schedule: Q01DX001 (ip), vehicle: saline 110 % of control | endpoint: mean survival time, dose: 4.0 mg/kg/injection, schedule: Q01DX009 (ip), vehicle: saline 103 % of control | endpoint: mean survival time, dose: 8.3 mg/kg/injection, schedule: Q01DX001 (ip), vehicle: saline 118 % of control

COc1cc(C2CC(C)(O)Oc3cc4c(cc32)OCO4)cc(OC)c1OC (stereo not given)
inactive: [1] 106 % of control | [2] 114 % of control | endpoint: median survival time, dose: 86.0 mg/kg/injection, schedule: Q01DX005 (ip), vehicle: saline with Tween-80 119 % of control | [3] 110 % of control | endpoint: median survival time, dose: 200.0 mg/kg/injection, schedule: Q01DX005 (ip), vehicle: saline with Tween-80 102 % of control | endpoint: median survival time, dose: 240.0 mg/kg/injection, schedule: Q01DX005 (ip), vehicle: saline with Tween-80 102 % of control
active: endpoint: median survival time, dose: 144.0 mg/kg/injection, schedule: Q01DX005 (ip), vehicle: saline with Tween-80 160 % of control

Nc1ccc(OCc2nc(N)nc(N)c2-c2ccc(Cl)cc2)cc1
inactive: endpoint: mean survival time, dose: 50.0 mg/kg/injection, schedule: Q01DX001 (ip), vehicle: saline with Tween-80 95 % of control | [4] 101 % of control | endpoint: mean survival time, dose: 200.0 mg/kg/injection, schedule: Q01DX001 (ip), vehicle: saline with Tween-80 93 % of control

CC1=CCC(C(C)(C)c2ccc(O)cc2)CC1 (stereo not given)
inactive: endpoint: mean survival time, dose: 25.0 mg/kg/injection, schedule: Q01DX009 (ip), vehicle: saline with Tween-80 94 % of control | [5] 110 % of control | [6] 98 % of control | [7] 90 % of control | [8] 96 % of control | [9] 104 % of control | [10] 90 % of control

CCCC(CC)OC(=O)Nc1cccc2ccccc12 (stereo not given)
inactive: endpoint: mean survival time, dose: 100.0 mg/kg/injection, schedule: Q01DX001 (ip), vehicle: saline 100 % of control | endpoint: mean survival time, dose: 200.0 mg/kg/injection, schedule: Q01DX001 (ip), vehicle: saline 102 % of control | endpoint: mean survival time, dose: 400.0 mg/kg/injection, schedule: Q01DX001 (ip), vehicle: saline 100 % of control

Cc1cc(F)ccc1NC(=O)Nc1ccc(F)cc1C
inactive: endpoint: mean survival time, dose: 25.0 mg/kg/injection, schedule: Q04DX002 (ip), vehicle: saline with Tween-80 87 % of control | endpoint: mean survival time, dose: 50.0 mg/kg/injection, schedule: Q04DX002 (ip), vehicle: saline with Tween-80 87 % of control

Cn1cc[n+](C)c1C(c1ccccc1)N1CCCCC1 (stereo not given)
inactive: endpoint: mean survival time, dose: 5.0 mg/kg/injection, schedule: Q01DX001 (ip), vehicle: saline with Tween-80 106 % of control | endpoint: mean survival time, dose: 5.0 mg/kg/injection, schedule: Q01DX009 (ip), vehicle: saline with Tween-80 94 % of control | endpoint: mean survival time, dose: 10.0 mg/kg/injection, schedule: Q01DX001 (ip), vehicle: saline with Tween-80 96 % of control | endpoint: mean survival time, dose: 10.0 mg/kg/injection, schedule: Q01DX009 (ip), vehicle: saline with Tween-80 100 % of control | endpoint: mean survival time, dose: 20.0 mg/kg/injection, schedule: Q01DX001 (ip), vehicle: saline with Tween-80 102 % of control | endpoint: mean survival time, dose: 20.0 mg/kg/injection, schedule: Q01DX009 (ip), vehicle: saline with Tween-80 98 % of control

O=C(O)C(C(=O)O)C1Cc2cccc3cccc1c23 (stereo not given)
inactive: [4] 94 % of control

O=C(Nc1ccc([N+](=O)[O-])cc1)OC1CCS(=O)(=O)C1 (stereo not given)
inactive: endpoint: mean survival time, dose: 75.0 mg/kg/injection, schedule: Q04DX003 (ip), vehicle: saline 102 % of control | endpoint: mean survival time, dose: 150.0 mg/kg/injection, schedule: Q04DX003 (ip), vehicle: saline 98 % of control | endpoint: mean survival time, dose: 300.0 mg/kg/injection, schedule: Q04DX003 (ip), vehicle: saline 101 % of control

CCC(C(=O)O)C(=O)O.[NH2-].[NH2-].[Pt+2]
inactive: endpoint: mean survival time, dose: 12.5 mg/kg/injection, schedule: Q04DX003 (ip), vehicle: saline 101 % of control | endpoint: mean survival time, dose: 200.0 mg/kg/injection, schedule: Q04DX003 (ip), vehicle: saline 87 % of control | endpoint: median survival time, dose: 3.12 mg/kg/injection, schedule: Q01DX009 (ip), vehicle: saline 108 % of control | endpoint: median survival time, dose: 100.0 mg/kg/injection, schedule: Q01DX009 (ip), vehicle: saline 95 % of control

COc1cc(OC)c(C(=O)c2ccccc2N)c(OC)c1
inactive: [5] 98 % of control | [6] 101 % of control | [8] 98 % of control

Cc1cc(C)c(B(c2c(C)cc(C)cc2C)c2c(C)cc(C)cc2C)c(C)c1
inactive: [6] 100 % of control | [8] 94 % of control | [9] 90 % of control | endpoint: mean survival time, dose: 400.0 mg/kg/injection, schedule: Q01DX009 (ip), vehicle: saline with Tween-80 94 % of control | [10] 96 % of control

CCC1OCC(C(Cl)CCl)O1 (stereo not given)
inactive: endpoint: mean survival time, dose: 12.5 mg/kg/injection, schedule: Q01DX009 (ip), vehicle: Klucel (hydroxypropylcellulose) (HPC) 94 % of control and 101 % of control | endpoint: mean survival time, dose: 25.0 mg/kg/injection, schedule: Q01DX009 (ip), vehicle: Klucel (hydroxypropylcellulose) (HPC) 99 % of control and 102 % of control | [11] 95 % of control and 96 % of control | [12] 94 % of control and 107 % of control | [13] 90 % of control and 91 % of control | endpoint: mean survival time, dose: 400.0 mg/kg/injection, schedule: Q01DX009 (ip), vehicle: Klucel (hydroxypropylcellulose) (HPC) 87 % of control

CC(C)OC(=O)N(C(=O)OC(C)C)c1ccccc1
inactive: endpoint: mean survival time, dose: 100.0 mg/kg/injection, schedule: Q04DX002 (ip), vehicle: saline with Tween-80 94 % of control | endpoint: mean survival time, dose: 200.0 mg/kg/injection, schedule: Q04DX002 (ip), vehicle: saline with Tween-80 108 % of control | endpoint: mean survival time, dose: 400.0 mg/kg/injection, schedule: Q04DX002 (ip), vehicle: saline with Tween-80 94 % of control

COc1cc(Cl)c(CCBr)cc1OC
inactive: [11] 104 % of control | [12] 89 % of control | [13] 96 % of control

CC1COC(Nc2cccc3c2CCCC3)=N1 (stereo not given)
inactive: endpoint: mean survival time, dose: 12.5 mg/kg/injection, schedule: Q04DX003 (ip), vehicle: saline with Tween-80 97 % of control | endpoint: mean survival time, dose: 25.0 mg/kg/injection, schedule: Q04DX003 (ip), vehicle: saline with Tween-80 97 % of control | endpoint: mean survival time, dose: 50.0 mg/kg/injection, schedule: Q04DX003 (ip), vehicle: saline with Tween-80 97 % of control

O=[N+]([O-])O.[In]
inactive: endpoint: mean survival time, dose: 1.25 mg/kg/injection, schedule: Q01DX009 (ip), vehicle: saline 93 % of control | endpoint: mean survival time, dose: 2.5 mg/kg/injection, schedule: Q01DX009 (ip), vehicle: saline 96 % of control | endpoint: mean survival time, dose: 5.0 mg/kg/injection, schedule: Q01DX009 (ip), vehicle: saline 95 % of control | endpoint: mean survival time, dose: 10.0 mg/kg/injection, schedule: Q01DX009 (ip), vehicle: saline 96 % of control

c1ccc(CCc2nc3ccccc3o2)cc1
inactive: [7] 98 % of control | [9] 102 % of control | [10] 93 % of control

NCCSCC(N)C(=O)O (stereo not given)
inactive: endpoint: mean survival time, dose: 50.0 mg/kg/injection, schedule: Q01DX009 (ip), vehicle: saline 100 % of control | endpoint: mean survival time, dose: 100.0 mg/kg/injection, schedule: Q01DX009 (ip), vehicle: saline 100 % of control | endpoint: mean survival time, dose: 200.0 mg/kg/injection, schedule: Q01DX009 (ip), vehicle: saline 104 % of control

COC(=O)c1cccc(C)c1O
inactive: [6] 102 % of control | [7] 97 % of control | [8] 98 % of control | [9] 96 % of control | [10] 93 % of control

COc1ccc2c(c1)n([O-])c1ccccc1[n+]2=O
222 % of control and 112 % of control: endpoint: median survival time, dose: 36.0 mg/kg/injection, schedule: Q01DX005 (ip), vehicle: saline with Tween-80
inactive: endpoint: median survival time, dose: 12.5 mg/kg/injection, schedule: Q01DX005 (ip), vehicle: saline with Tween-80 116 % of control | endpoint: median survival time, dose: 12.56 mg/kg/injection, schedule: Q01DX005 (ip), vehicle: saline with Tween-80 115 % of control | endpoint: median survival time, dose: 21.6 mg/kg/injection, schedule: Q01DX005 (ip), vehicle: saline with Tween-80 115 % of control | [1] 116 % of control | [2] 117 % of control | endpoint: median survival time, dose: 166.67 mg/kg/injection, schedule: Q01DX005 (ip), vehicle: saline with Tween-80 123 % of control
active: [3] 300 % of control
120 % of control and 287 % of control: endpoint: median survival time, dose: 60.0 mg/kg/injection, schedule: Q01DX005 (ip), vehicle: saline with Tween-80

COc1ccc([Se][Se]c2ccc(OC)cc2NC(C)=O)c(NC(C)=O)c1
inactive: [5] 97 % of control | [6] 101 % of control | [7] 89 % of control | [8] 105 % of control | [9] 87 % of control
